Measurements as given in US20020094522A1, “Means and methods for monitoring non-nucleoside reverse transcriptase inhibitor antiretroviral therapy and guiding therapeutic decisions in the treatment of HIV/AIDS” (priority 2000, published 2002).

Experiments:
[1] = test system: Y188L-RTV (HIV reverse transcriptase Y188L); test: Phenotypic susceptibility assay, Y188L-RTV; assay type: cell-based, HIV-1; settings: site directed mutant
From the text: (§1) The resistance test vectors containing a functional luciferase gene cassette were constructed and host cells were transfected with the resistance test vector DNA. The resistant test vectors contained patient-derived reverse transcriptase and protease sequences that were either susceptible or resistant to the antiretroviral agents, such as nucleoside reverse transcriptase inhibitors, non-nucleoside reverse transcriptase inhibitors and protease inhibitors. The resistance test vector viral particles produced by transfecting the resistance test vector DNA into host cells, either in the presence or absence of protease inhibitors, were used to infect target host cells grown either in the absence of NRTI or NNRTI or in the presence of increasing concentrations of the drug. The amount of luciferase activity produced in infected target host cells in the presence of drug was compared to the amount of luciferase produced in infected target host cells in the absence of drug. Drug resistance was measured as the amount of drug required to inhibit by 50% the luciferase activity detected in the absence of drug (inhibitory concentration 50%, IC50). The IC50 values were determined by plotting percent drug inhibition vs. log10 drug concentration.
(§2) Host cells were seeded in 10-cm-diameter dishes and were transfected several days after plating with resistance test vector plasmid DNA and the envelope expression vector. Transfections were performed using a calcium-phosphate precipitation procedure. The cell culture media containing the DNA precipitate was replaced with fresh medium, from one to 24 hours, after transfection. Cell culture media containing resistance test vector viral particles was harvested one to four days after transfection and was passed through a […] filter before being stored at −80° C. HIV capsid protein (p24) levels in the harvested cell culture media were determined by an EIA method as described by the manufacturer (SIAC; Frederick, Md.). […] The inhibitory effect of the drug was determined using the following equation: […]

[2] = test system: E138A-RTV (HIV reverse transcriptase E138A); test: Phenotypic susceptibility assay, E138A-RTV; assay type: cell-based, HIV-1; settings: site directed mutant
From the text: as §1, with “Drug resistance was measured as the amount of drug required to inhibit by 50% the luciferase activity detected in the absence of drug (inhibitory concentration 50%, IC50).” left out
(§3) Host cells were seeded in 10-cm-diameter dishes and were transfected several days after plating with resistance test vector plasmid DNA and the envelope expression vector. […] HIV capsid protein (p24) levels in the harvested cell culture media were determined by an EIA method as described by the manufacturer (SIAC; Frederick, Md.). […] The inhibitory effect of the drug was determined using the following equation: […]
The E138A mutation alone and in combination with Y188L was introduced into resistance test vectors using the megaprimer method for site-directed mutagenesis (Sakar and Sommar, Ibid.). Resistance test vectors containing the E138A mutation (E138A-RTV) or the E138 mutation along with the […] mutation (E138A-Y188L-RTV) were then tested using the phenotypic assay described earlier and the results were compared to those determined using a genetically defined resistance test vector that was wild type at positions 188 and 138.

[3] = test system: RTV-B clone 1 (patient sample B); test: Phenotypic susceptibility assay, RTV-B clone 1; assay type: cell-based, HIV-1; settings: values <1 = increased susceptibility
From the text: as §1, §2

[4] = test system: G190S-RTV (HIV reverse transcriptase G190S); test: Phenotypic susceptibility assay, G190S-RTV; assay type: cell-based, HIV-1; settings: for change in susceptibility compared to wild type reference RTV: Example 5; for fold change in susceptibility compared to wild type control RTV: values <1 = increased susceptibility
From the text: as §1
as §2, with “Md.). Before infection, target cells (293 and 293/T) were plated in cell culture media. Control infections were performed using cell culture media from mock transfections (no DNA) or transfections containing the resistance test vector plasmid DNA without the envelope expression plasmid. One to three or more days after infection the media was removed and cell lysis buffer (Promega) was added to each well.” for “Md.).”
where RLUluc [drug] is the relative light unit of luciferase activity in infected cells in the presence of drug and RLUluc is the Relative Light Unit of luciferase activity in infected cells in the absence of drug. IC50 values were obtained from the sigmoidal curves that were generated from the data by plotting the percent inhibition of luciferase activity vs. the log10 drug concentration.

[5] = test system: V106A-RTV (HIV reverse transcriptase V106A); test: Phenotypic susceptibility assay, V106A-RTV; assay type: cell-based, HIV-1; settings: site directed mutant
From the text: as §1, §2

[6] = test system: V189L-RTV (HIV reverse transcriptase V189L); test: Phenotypic susceptibility assay, V189L-RTV; assay type: cell-based, HIV-1; settings: V189-RTV (V189L), site directed mutant
From the text: as §1, §2

[7] = test system: F227L-RTV (HIV reverse transcriptase F227L); test: Phenotypic susceptibility assay, F227L-RTV; assay type: cell-based, HIV-1; settings: values <1 = increased susceptibility
From the text: as §1, §2

V106A-Y181C-RTV = test: Phenotypic susceptibility assay, V106A-Y181C-RTV; assay type: cell-based, HIV-1; settings: site directed mutant
From the text: as §1, §2

V106A-F227-RTV = test: Phenotypic susceptibility assay, V106A-F227-RTV; assay type: cell-based, HIV-1; settings: site directed mutant
From the text: as §1, §2

Y181C-F227L-RTV = test: Phenotypic susceptibility assay, Y181C-F227L-RTV; assay type: cell-based, HIV-1; settings: values <1 = increased susceptibility
From the text: as §1, §2

V106A-Y181C-F227L-RTV = test: Phenotypic susceptibility assay, V106A-Y181C-F227L-RTV; assay type: cell-based, HIV-1; settings: site directed mutant
From the text: as §1, §2

[8] = test system: K103N-RTV (HIV reverse transcriptase K103N); test: Phenotypic susceptibility assay, K103N-RTV; assay type: cell-based, HIV-1; settings: site directed mutant
From the text: as §1
as §3, with “vector. Transfections were performed using a calcium-phosphate precipitation procedure.” for “vector.”
The mutations Y188L, L100I and K103N were introduced alone and in combinationn into resistance test vectors using the mega-primer method for site-directed mutagenesis (Sakar and Sommar, Ibid.). […] We determined the pattern of phenotypic susceptibility to the NNRTIs, delavirdine, nevlrapine and efavirenz, in all 6 vectors.

[9] = test system: T66I integrase site-directed mutant resistance test vector; test: Phenotypic susceptibility assay, T66I integrase mutant vector; assay type: cell-based, HIV; settings: {}
Experimental: Transfections were performed using a calcium-phosphate precipitation procedure. […] Cell lysates were assayed for luciferase activity (FIG. 3).
The drug inhibition curves are shown in (FIG. 3).
A resistance test vector containing the threonine to isoleucine mutation at position 66 of the integrase protein (T66I) was constructed and tested using the phenotypic assay described earlier.

Row | SMILES | fold loss of susceptibility compared to wild type control RTV [1] | fold change in susceptibility compared to wild type control RTV [2] [fold] | fold change in susceptibility (IC50) [3] [fold] | change in susceptibility compared to wild type reference RTV [4] | fold change in susceptibility compared to wild type control RTV [4] [fold] | fold loss of susceptibility compared to wild type control RTV [5] [fold] | fold change in susceptibility compared to wild type control RTV [6] [fold] | fold change in susceptibility compared to wild type control RTV [7] [fold] | fold loss of susceptibility compared to wild type control RTV (V106A-Y181C-RTV) | fold loss of susceptibility compared to wild type control RTV (V106A-F227-RTV) | fold change in susceptibility compared to wild type control RTV (Y181C-F227L-RTV) [fold] | fold loss of susceptibility compared to wild type control RTV (V106A-Y181C-F227L-RTV) | fold loss of susceptibility compared to wild type control RTV [8] [fold] | increase in susceptibility compared to wild type control RTV [9]
1 | CC(C)Nc1cccnc1N1CCN(C(=O)c2cc3cc(NS(C)(=O)=O)ccc3[nH]2)CC1 [delavirdine] | 9 fold | 1.6 | 0.55 | slightly more susceptible to delavirdine | 0.5 | 5 | 1.8 | 0.03 | 100 fold | 3 fold | 0.89 | 50 fold | 50 | 8-10 fold
2 | O=C1Nc2ccc(Cl)cc2[C@@](C#CC2CC2)(C(F)(F)F)O1 [efavirenz] | 110 fold | 1.4 | 250 |  | 8 | 1.7 | 1.3 | 0.48 | 4 fold | 8 fold | 0.99 | 12 fold | 30 | 8-10 fold
3 | Cc1ccnc2c1NC(=O)c1cccnc1N2C1CC1 [nevirapine] | greater than 800 fold | 1.3 | 640 | markedly less susceptible to nevirapine | 75 | 60 | 1.3 | 3 | greater than 800 fold | greater than 800 fold | 285 | greater than 800 fold | 55 | 8-10 fold
